Values of other authors as cited in patent publication US20070149409A1, “Pesticide formulations with substituted biopolymers and organic polymers for improving residual activity, droplet size, adherence and rainfastness on leaves and reduction in soil leaching” (priority 2003, published 2007).

| Compound | pK / pKa |
| --- | --- |
| Nc1nc[nH]n1 [Amitrole] | 9.8 |
| CP(=O)(O)CCC(N)C(=O)O (centres unmarked) [glufosinate] | 9.8 |
| CCCC(Cn1cncn1)c1ccc(Cl)cc1Cl (centres unmarked) [penconazole] | 1.5 |
| CCCOC(=O)NCCCN(C)C [propamocarb] | 4.9 |
| Indole acetic acid | 4.7 |
